Reference: patent publication US20240390377A1, “COMPOSITION FOR THE PREVENTION OR TREATMENT OF NEURODEGENERATIVE OR MOTOR NEURON DISEASES COMPRISING HALOFUGINONE AS AN ACTIVE INGREDIENT” (CURAMYS CO., LTD., priority 2022, published 2024)

Tests used:
[1] = test system: G93A mutant SOD1 transgenic mice; experiment: ALS animal model disease progression, survival and motor function (rotarod) analysis; format: in vivo, mouse
Description: Specifically, all animal experiments were conducted according to the guidelines of the Animal Care Committee of Seoul National University Animal Hospital (IACUC, approval number SNU-200220-1-2). Transgenic mice expressing the human G93A mutant SOD1 gene (B6SJL-Tg(SOD1-G93A) 1 Gur/J) as an ALS animal model were purchased from Jackson Laboratory (Bar Harbor, ME, USA). Male transgenic ALS mice expressing mtSOD1(G93A) H1 strain (Jackson Laboratories, Bar Harbor, ME, USA) were crossed with female mice (B6/SJLF1). The mice were housed under standard conditions with a constant temperature of 22±1° C., relative humidity of 40%, and a 12-hour light-dark cycle, with ad libitum access to food and water. Genotypes were confirmed by polymerase chain reaction (PCR) using primers shown in [Table 1] below, and the number of transgene copies was confirmed. Next, G93A mutant SOD1 transgenic mice were divided into three stages: 60 days old (asymptomatic), 90 days old (early symptom), and 120 days old (late symptom) depending on the time point. A total of 96 mice were used in the experiment. As a control group, non-transgenic mice were used.
(§1) As a control group, non-transgenic mice were injected intraperitoneally (i.p.) with vehicle (DMSO) in the same manner for the same period of time.
Specifically, the clinical condition and body weight of the mice in Example 6 were assessed three times a week starting from day 83 post-birth. Disease onset was defined as tremor of the limbs when the mouse's tail was suspended in the air, reported to be clinically associated with upper motor neuron system [S. Nagano, Y. Fujii, T. Yamamoto, M. Taniyama, K. Fukada, T. Yanagihara, et al. The efficacy of trientine or ascorbate alone compared to that of the combined treatment with these two agents in familial amyotrophic lateral sclerosis model mice Exp Neurol, 179 (2003), pp. 176-180]. The endpoint age was determined as the inability of the animal to right itself within 30 seconds after being placed on a flat surface on its side. At this point, the mouse was considered deceased [C. Zheng, I. Nennesmo, B. Fadeel, J. I. Henter Vascular endothelial growth factor prolongs survival in a transgenic mouse model of ALS Ann Neurol, 56 (2004), pp. 564-567]. The motor function of mice was assessed using a rotarod apparatus (JD-A-07M, JEUNG DO BIO & PLANT CO., LTD). Mice were trained for one week prior to recording. The mice were placed on a rotarod that started at a speed of 4 rpm and accelerated up to 40 rpm over 300 seconds, increasing by 1 rpm approximately every 8.3 seconds. The rotarod test was measured on average three times per measurement, three times per week from 83 days of age, until it was not possible to stay in rotarod for more than 10 seconds three consecutive times.
All data were expressed as the mean and the standard error of the mean (SEM) based on at least three independent experiments and as the ratio of control values. The significance of differences between groups was analyzed by Student's t-test or one-way ANOVA followed by Tukey's post host comparison. A p-value of <0.05 was considered statistically significant. The cumulative probability of symptom onset, rotarod failure, and disease endpoint was analyzed using a Kaplan Meier curve. All analyses were performed using GraphPad Prism. […]

[2] = test system: G93A mutant SOD1 transgenic mice; experiment: Immunohistochemical analysis of lumbar spinal cord in ALS animal model; format: in vivo, mouse
Description: as §1
Specifically, the mice of Example 6 above were perfused with 4% paraformaldehyde (PFA) on 90 and 120 days of age, and the lumbar spinal cord and knee joints were separated. After fixation in 4% PFA for 24 hours, the knee joints were rinsed in running tap water for 24 hours and then incubated at 4° C. with continuous shaking in decalcifying solution (Calci-Clear, HS-104, National Diagnostics). The decalcification solution was replaced daily with fresh solution until the bones were easily penetrated with a needle, indicating completion of the decalcification process. Subsequently, the decalcified knee joints were rinsed in running tap water for 24 hours, and the spinal cord and knee joint samples were treated with 30% sucrose until they sank, followed by freeze protection, followed by successive cuts (14 μm). The lumbar spinal cord and knee joint tissue sections were washed three times with PBS and permeabilized with 0.5% Triton X-100 for 5 minutes. Subsequently, they were blocked with 5% bovine serum albumin (BSA) in 0.3% PBS-T at room temperature for 1 hour. The knee joint tissue sections were incubated with anti-TGF-β1 antibody (1:200; Santa Cruz, cat #sc130348), anti-α-SMA antibody (1:200; Abcam, cat #ab7817), anti-MyoD antibody (1:200; Santa Cruz, cat #sc377460), and anti-Collagen I antibody (1:200; Abcam, cat #ab21286) each, while the lumbar spinal cord sections were incubated with anti-GFAP antibody (1:200; Dako, cat #Z0334), anti-Iba1 antibody (1:200; Wako, cat #016)-20001), anti-TGF-β1 antibody (1:200; Santa Cruz, cat #sc130348), anti-TGF-β1 antibody (1:200; Abcam, cat #ab92486), and anti-IL-1β antibody (1:200; R&D Systems, cat #AF-401-NA) at 4° C. for an additional 24 hours. After washing the sections three times with PBS, they were incubated with Alexa Fluor secondary antibodies in a dark chamber at room temperature for 1 hour. […] Furthermore, analysis was performed using Leica Application Suite X software (Leica Microsystems).
Specifically, halofuginone was administered to G93A mutant SOD1 mice in the same manner as described in <Example 6>, and immunohistochemical analysis was performed in the same manner as described in <Example 8> to identify TGF-β1 and glial cells in the lumbar spinal cord. Considering that TGF-β derived from astrocytes has been reported to accelerate disease in ALS mice, each group's spinal cord was co-stained with TGF-β and GFAP during immunohistochemical analysis. In addition, Iba1 staining was performed to confirm the activity of microglia (FIGS. 9a and 9b).
In addition, to investigate the effect of glial changes in TGF-β and CNS on inflammation, IL-1β, a representative pro-inflammatory cytokine, was simultaneously stained with GFAP during immunohistochemical analysis (FIG. 9c).
In addition, halofuginone was administered to G93A mutant SOD1 mice in the same manner as described in Example 6. After sacrificing the mice at 90 days of age, Iba1 staining was performed to confirm the activation of microglia (FIG. 10a), and motor neurons were observed and counted using the same method as described above (FIG. 10b).

[3] = 250 μg/kg i.p. three times a week from 10 weeks of age, Hal TG vs DMSO TG group (FIG. 6a)

For `O=C(C[C@H]1NCCC[C@@H]1O)Cn1cnc2cc(Br)c(Cl)cc2c1=O` (racemic) [halofuginone], the body weight [1, 3] was “no significant difference”, the “time in the rotarod” value [1, 3] was “significantly longer” and the onset of symptoms ([1]; 250 μg/kg i.p. three times a week, mean±SD, DMSO TG group 94.2±5.7) was 113±3.6. The “age of reaching rotarod failure” value ([1]; 250 μg/kg i.p. three times a week, mean±SD, DMSO TG group 116.5±3.1, p<0.001) was 124.3±3.5, the endpoint age ([1]; 250 μg/kg i.p. three times a week, mean±SD, DMSO TG group 129.3±7.6) was 141.8±9.8 and the “microglia activity (Iba1) in lumbar spinal cord, compared with changes at 120 days” value ([2]; 90-day-old mice (FIG. 10a)) was “similar”. The “microglia (Iba1) in lumbar spinal cord” value ([2]; 120-day-old mice (FIG. 9a)) was “continuously increased”, the “increase in TGF-β1 in lumbar spinal cord” value ([2]; 120-day-old mice (FIG. 9b)) was “significantly reduced” and the “increase in astrocyte activity (GFAP) in lumbar spinal cord” value ([2]; 120-day-old mice (FIG. 9b)) was “significantly reduced”. For the same compound, the “activated inflammation (IL-1β with GFAP activity) in lumbar spinal cord” value ([2]; 120-day-old mice (FIG. 9c)) was “suppressed”.
